{"source": "patent US8481489B2", "about": "“GH secretagogues and uses thereof” (Theratechnologies Inc., priority 2003, dated 2013)", "key": {"[1]": {"test_system": "HIV-infected patients with abdominal fat accumulation", "assay": "Quality of life questionnaire (PLC), HIV lipodystrophy study", "format": "in vivo, human", "procedure": "A health-related quality of life questionnaire (PLC, Quality of Life Profile for the Chronically Ill) was self-administered to 61 patients randomized to receive placebo or TH9507 at 1 or 2 mg s.c. daily. The PLC questionnaire included a general, non-specific part assessing 6 dimensions of global health as well as a disease specific part capturing impact of enlarged abdominal girth, abdominal bloating, tenseness and pain, as well as diarrhea, visible facial changes, visible changes in physical appearance, and the feeling of being recognized as an HIV positive person.\nStudy population included 54 men and 7 women. […] Slight changes were observed within the treated groups in the positive mood and social well-being scores but were not considered clinically significant."}, "IGF-1 [2]": {"test_system": "IGF-1", "details": "daily 1 and 2 mg doses; reference (14); cited from earlier work"}, "In vitro half-life": {"assay": "In vitro half-life", "format": "in vitro ADME", "text": "The safety profile of TH9507 is generally good."}, "IGF-1 and IGFBP-3": {"test_system": "IGF-1 and IGFBP-3", "assay": "Circulating IGF-1 and IGFBP-3 levels, insomnia study", "format": "in vivo, human", "details": "week 2"}, "IGF-1 [3]": {"test_system": "IGF-1", "assay": "Circulating IGF-1 levels, 7-day administration in healthy middle-aged men", "format": "in vivo, human", "details": "for IGF-1 increase over baseline values / IGF-1 levels reached: 7 days", "procedure": "(§1) The study used a randomized, double-blind, placebo-controlled design and was conducted in healthy men, aged 50 to 60 years old. Subjects (8 per group) were injected S.C. once a day for 7 consecutive days with placebo, 0.5, 1 or 2 mg of TH9507. Circulating IGF-1 levels were measured on Days 1 to 7. The 12 hour GH response and TH9507 PK profile were determined on Day 1 and 7."}, "[4]": {"test_system": "type II diabetic patients", "assay": "Glucose control in type II diabetic patients", "format": "in vivo, human", "details": "for glycosylated hemoglobin (HbA1c) levels: Week 12", "procedure": "A double-blind placebo-controlled study was conducted in 53 type II diabetic patients (age=61±7 [SD]; 34% female) on stable antidiabetic medication (26% on insulin). Patients were randomized to parallel groups to receive daily subcutaneous administration of a placebo, 1 mg or 2 mg TH9507, respectively.\nClinically relevant changes in antidiabetic medications occurred with a similar incidence in the three treatment groups."}, "IGF-1 [5]": {"test_system": "IGF-1", "assay": "Mean IGF-1 values, influenza vaccination study", "format": "in vivo, human", "details": "1 and 2 mg SC daily, whole 8-week treatment period", "procedure": "Eighty seven (87) subjects aged 75 years in average were included in a double-bind, randomized, placebo-controlled study. TH9507 or a placebo was administered at a daily dose of 1 or 2 mg by subcutaneous injection for 8 weeks. Follow-up assessments were conducted for 12 weeks after the end of the treatment period. At week 4, in the middle of the treatment period, subjects received the commercial Canadian influenza vaccine (Vaccine Fluviral® S/F, Shire, Montreal, Canada) containing 15 μg each of A/New Caledonia/20/99, A/Panama/2007/99, B/Victoria/504/2000 antigens.\nValues returned to baseline following cessation of treatment."}, "[6]": {"test_system": "A/New Caledonia/20/99, A/Panama/2007/99, B/Victoria/504/2000 antigens", "assay": "Influenza antibody titers by hemaglutination inhibition assay in elderly subjects", "format": "in vivo, human"}, "[7]": {"test_system": "type II diabetic patients", "details": "patients with Type II DM, daily dose up to 2 mg; reference (15); cited from earlier work"}, "GH secretion": {"test_system": "GH secretion", "assay": "GH response and other pituitary hormones, 7-day study in healthy men", "format": "in vivo, human", "details": "dose dependent between 0.5 and 1 mg, similar at 1 and 2 mg", "procedure": "as §1, with “The 12 hour GH response and TH9507 PK profile were determined on Day 1 and 7.” left out"}, "[8]": {"test_system": "antigen-specific proliferative T cell response", "format": "in vivo, human", "details": "2 mg SC daily 8 weeks; week 0 to week 20; Panama, New Caledonia, Victoria"}, "[9]": {"test_system": "HIV-infected patients with abdominal fat accumulation", "details": "for CD4, Δ: change from baseline, Week 12, mean (SD)", "experimental": "Design: Randomized, placebo-controlled, multi-center, dose ranging (placebo, 1 mg or 2 mg SC QD), parallel group, 12-week study\nBiochemical parameters including insulin-like growth factor-I, glucose, insulin, lipid profile (cholesterol, HDL, LDL, triglyceride, non HDL and the ratio of cholesterol:HDL), free fatty acids, HbA1C, IGFBP-3, and bone markers (serum osteocalcin and NTX-1), CD4, viral load, and a pregnancy test for female subjects were determined in the fasting state.\nClinical laboratory testing was performed by a central lab. […] NTX (N-terminal telopeptide of type I collagen; a bone resorption marker) was measured by ELISA using a commercially available kit (Osteomark™, Ostex International Inc., Seattle, Wash.). Osteocalcin was measured using a commercially available enzymatic immunoassay kit (Metra™ osteocalcin, Quidel Corporation, San Diego, Calif.). CD4 and viral load were performed by the individual site labs by routine methodology."}}, "note": "Read-outs that look alike come from different tables or passages of the source.", "data": [{"compound": "CC/C=C/CC(=O)N[C@@H](Cc1ccc(O)cc1)C(=O)N[C@@H](C)C(=O)N[C@@H](CC(=O)O)C(=O)N[C@@H](C)C(=O)N[C@H](C(=O)N[C@@H](Cc1ccccc1)C(=O)N[C@H](C(=O)N[C@@H](CC(N)=O)C(=O)N[C@@H](CO)C(=O)N[C@@H](Cc1ccc(O)cc1)C(=O)N[C@@H](CCCNC(=N)N)C(=O)N[C@@H](CCCCN)C(=O)N[C@H](C(=O)N[C@@H](CC(C)C)C(=O)NCC(=O)N[C@@H](CCC(N)=O)C(=O)N[C@@H](CC(C)C)C(=O)N[C@@H](CO)C(=O)N[C@@H](C)C(=O)N[C@@H](CCCNC(=N)N)C(=O)N[C@@H](CCCCN)C(=O)N[C@@H](CC(C)C)C(=O)N[C@@H](CC(C)C)C(=O)N[C@@H](CCC(N)=O)C(=O)N[C@@H](CC(=O)O)C(=O)N[C@H](C(=O)N[C@@H](CCSC)C(=O)N[C@@H](CO)C(=O)N[C@@H](CCCNC(=N)N)C(=O)N[C@@H](CCC(N)=O)C(=O)N[C@@H](CCC(N)=O)C(=O)NCC(=O)N[C@@H](CCC(=O)O)C(=O)N[C@@H](CO)C(=O)N[C@@H](CC(N)=O)C(=O)N[C@@H](CCC(N)=O)C(=O)N[C@@H](CCC(=O)O)C(=O)N[C@@H](CCCNC(=N)N)C(=O)NCC(=O)N[C@@H](C)C(=O)N[C@@H](CCCNC(=N)N)C(=O)N[C@@H](C)C(=O)N[C@@H](CCCNC(=N)N)C(=O)N[C@@H](CC(C)C)C(N)=O)[C@@H](C)CC)C(C)C)[C@@H](C)O)[C@@H](C)CC", "note": "[TH9507, (hexenoyl trans-3)hGRF(1-44)NH2]", "values": [{"measurement": "abdominal pain (PLC)", "setting": "[1]; 1 mg only, P<0.05 vs baseline, NS vs placebo", "result": "Improvement"}, {"measurement": "bloating score change (PLC)", "setting": "[1]; 1 mg s.c. daily", "result": "−0.50"}, {"measurement": "enlarged abdominal girth score change (PLC)", "setting": "[1]; 1 mg s.c. daily", "result": "−0.93"}, {"measurement": "tenseness (PLC)", "setting": "[1]; 1 mg, P=0.07 vs baseline, NS vs placebo", "result": "trend for improvement"}, {"measurement": "bloating score change (PLC)", "setting": "[1]; 2 mg s.c. daily", "result": "−0.69"}, {"measurement": "enlarged abdominal girth score change (PLC)", "setting": "[1]; 2 mg s.c. daily", "result": "−1.19"}, {"measurement": "subscales of the main portion of the PLC, between groups", "setting": "[1]; 1 or 2 mg s.c. daily", "result": "No significant difference"}, {"measurement": "IGF-I", "setting": "IGF-1 [2]", "result": "increase IGF-I to the physiological range seen in younger adults"}, {"measurement": "half-life", "setting": "In vitro half-life", "result": "3 to 8", "unit": "h"}, {"measurement": "Circulating IGF-1 level vs placebo", "setting": "IGF-1 and IGFBP-3; 0.1 mg", "result": "did not affect"}, {"measurement": "Circulating IGFBP-3 level vs placebo", "setting": "IGF-1 and IGFBP-3; 0.1 mg", "result": "did not affect"}, {"measurement": "Circulating IGF-1 level vs placebo", "setting": "IGF-1 and IGFBP-3; 1 mg", "result": "significantly increased"}, {"measurement": "Circulating IGFBP-3 level vs placebo", "setting": "IGF-1 and IGFBP-3; 1 mg", "result": "significantly increased"}, {"measurement": "IGF-1 increase over baseline values", "setting": "IGF-1 [3]; 0.5 mg SC once a day", "result": 37, "unit": "%"}, {"measurement": "time at which IGF-1 plateau was reached", "setting": "IGF-1 [3]; 1 mg", "result": 4, "unit": "days"}, {"measurement": "IGF-1 increase over baseline values", "setting": "IGF-1 [3]; 1 mg SC once a day", "result": 89, "unit": "%"}, {"measurement": "IGF-1 levels reached", "setting": "IGF-1 [3]; 1 mg SC once a day", "result": "286 ± 25", "unit": "ng/mL"}, {"measurement": "time at which IGF-1 plateau was reached", "setting": "IGF-1 [3]; 2 mg", "result": 6, "unit": "days"}, {"measurement": "IGF-1 increase over baseline values", "setting": "IGF-1 [3]; 2 mg SC once a day", "result": 106, "unit": "%"}, {"measurement": "IGF-1 levels reached", "setting": "IGF-1 [3]; 2 mg SC once a day", "result": "284 ± 55", "unit": "ng/mL"}, {"measurement": "IGF-1 levels of individual subjects", "setting": "IGF-1 [3]; none of the subjects greater than this level", "result": "≤ 400", "unit": "ng/mL"}, {"measurement": "glycosylated hemoglobin (HbA1c) levels", "setting": "[4]; 1 mg", "result": "a decrease"}, {"measurement": "glycosylated hemoglobin (HbA1c) levels", "setting": "[4]; 2 mg", "result": "no change"}, {"measurement": "insulin relative response to an oral glucose tolerance test, between groups", "setting": "[4]; placebo, 1 mg, 2 mg, treatment period", "result": "No statistically significant differences"}, {"measurement": "mean IGF-1 values vs baseline", "setting": "IGF-1 [5]", "result": "dose-related increase"}, {"measurement": "percentage of subjects with protective antibody level", "setting": "[6]; Panama and New Caledonia strains", "result": "No statistical difference"}, {"measurement": "proportion of patients achieving a protective antibody level vs placebo", "setting": "[6]; Victoria antigen, statistically significant at 2 mg, weeks 6-20", "result": "increased"}, {"measurement": "overall glycemic control", "setting": "[7]", "result": "not shown to aggravate overall glycemic control"}, {"measurement": "GH response", "setting": "GH secretion", "result": "increased rapidly"}, {"measurement": "mean AUC of antigen-specific proliferative T cell response vs placebo", "setting": "[8]", "result": "statistically higher"}, {"measurement": "CD4, Δ", "setting": "[9]; 1 mg SC QD", "result": "24.4 (147.41) cells/mm^3"}, {"measurement": "CD4, Δ", "setting": "[9]; 2 mg SC QD", "result": "−23.2 (70.7) cells/mm^3"}, {"measurement": "CD4 count and viral load", "setting": "[9]; in vivo", "result": "did not change"}]}]}
